From patent US9988626B2, “Neurocalcin delta inhibitors and therapeutic and non-therapeutic uses thereof” (Universität Zu Köln, priority 2013, dated 2018)
Entries after “also recorded” stand apart in the source; their conditions may differ.

Columns and labels:
Ncald = experiment: Knockdown efficiency of shRNA constructs in NSC34 cells (qRT-PCR of Ncald levels); type: cell-based, mouse; conditions: transient transfection of NSC34 cells, 72 h
Protocol: Before starting the cloning of the targeting construct for the mouse generation, we constructed and tested five individual shRNA elements targeting the Ncald gene. To do so, we transiently transfected five different shRNA-Ncald constructs in murine NSC34 cells and analysed the knockdown efficiency after 72 h. […] For further testing, we cloned selected shRNA sequences into the vector pEx-H1tetO-CAG-tetR carrying all necessary elements of the tetO/R system which allow later induction of the shRNA-expression by administration of doxycycline (Dox) (Kleinhammer et al. 2011). Currently, after we could verify the dox-inducible capability of two shRNA constructs to knockdown Ncald, we are producing stable murine embryonic cell lines (ES cells) to subsequently generate two individual transgenic mouse strains containing inducible Ncald knockdown vectors. These mice will later be crossed on SMA background to investigate the protective ability of Ncald downregulation.
The knockdown efficiency of five individual shRNA sequences was tested by qRT-PCR-based quantification of Ncald levels, 72 h after knockdown using different shRNA sequences. Transient transfection of NSC34 cells. The respective sequences are those of SEQ ID NO: 15-19 as shown above.

zebrafish larvae = experiment: Endocytosis inhibitor treatment of zebrafish, motor axon phenotype; type: in vivo
Protocol: The in vivo effect of inhibition of endocytosis on MN outgrowth was investigated by the use of the pharmacological inhibitors Pitstop2 and Dynasore (both Abcam) in the SMA zebrafish model. Motor axons of treated zebrafish larvae were analyzed by fluorescence microscopy. For immunohistochemistry, zebrafish were manually dechorionated and fixed in 4% PFA-PBS at 34 hours post fertilization. To permeabilize the larvae for the following antibody staining, collagenase digest of the whole animal was performed. To visualize the primary motor axons, fish were incubated at 4° C. over night in 500 μl PBS-T/1% DMSO/10% FCS containing znp-1 antibody (1:300, Hybridoma Bank). Fish were stained in PBS-T/1% DMSO/10% FCS containing secondary donkey anti-mouse antibody labelled with Alexafluor 488 (1:200, Invitrogen) after all-day washing in PBS-T/1% FCS/1% BSA (changing solution every hour). After repeated washing in PBS-T and PBS, fish were stored in 80% glycerol/20% PBS in the dark at 4° C. Labelled fish were embedded in low-melting agarose micro slides and analysed using a fluorescence microscope (AxioImager M2, Zeiss). The structure of each of the first ten motor axons posterior to the yolk was analysed, rated as: 1) normal, 2) truncated (truncation ventral from midline), 3) severely truncated (shorter than midline), 4) branched I (branching ventral from midline), 5) branched II (branching at midline), or 6) branched BI (branching dorsal from midline) and statistically evaluated using Excel (Microsoft). Dynasore (dynamin inhibitor) and Pitstop2 (clathrin inhibitor) (both Abcam) were dissolved as stock solution (50 mM) in DMSO and stored at −20° C. Zebrafish were treated with the respective concentrations starting at 16 hpf. To do so, fish were dechorionated and substance was added to the embryo medium. Fish larvae were incubated at 28° C. in an incubator on a rocking platform (20 rpm) until fixed in PBS-PFA at 34 hpf. Subsequently fish were stained with znp-1 antibody, as described above.

NSC34 cells = experiment: FITC-dextran endocytosis assay of NSC34 cells treated with Ionomycin; type: cell-based, mouse; conditions: presence vs absence of Ionomycin, n=50
Protocol: To unravel differences in endocytosis performance, cells (fibroblasts and NSC34) were starved and subsequently incubated with FITC-dextran. FITC-uptake after respective incubation times was quantified either by microscopic analysis or by FACS.
One day before the measurement, some 15,000 fibroblasts per well (4-well EZ slides, Millipore) were plated out in 500 μl normal DMEM growth medium (Invitrogen). Cells were starved for 10 minutes in starvation media (DMEM transparent (HEPES), 2% FKS) at 37° C. For endocytosis, cells were treated with FITC dextran solution (5 mg/ml FITC-dextran in starvation medium) for respective time period at 37° C. Subsequently, medium was removed and cells were washed three times with ice-cold PBS on ice and fixed in 4% paraformaldehyde for ten minutes. After subsequent washing (2 times in PBS) cells were stained with Alexafluor 568 phalloidin (Invitrogen, 2 hours at 4° C.). Then, after washing cells were stained with DAPI and mounted with Mowiol (Sigma). Finally, FITC fluorescence was monitored at the fluorescence microscope (Axiolmager M2, Zeiss) and quantified using the Zen software (Zeiss) and evaluated with Excel (Microsoft).

shRNA #5: shRNA knocking down mouse NCALD, one of five of SEQ ID NO: 15-19 (DNA CCGGGCTTCCAAATTTGCAGAGCATCTGGAGATGCTCTGCAAATTTGGAAGCTTTTTG)
Knockdown efficacy of Ncald (Ncald): sufficient knockdown efficacy

O=C1NC(=NS(=O)(=O)c2cccc3ccccc23)S/C1=C\c1ccc(Br)cc1 [Pitstop2]
Motor axon truncation, inhibitor in combination with smn MO (zebrafish larvae; subphenotypical smn MO (2 ng) plus Pitstop2): significant elevation in the number of truncated motor axons
Motor axon truncation, inhibitor in combination with smn MO (zebrafish larvae; subphenotypical smn MO (2 ng) plus Pitstop2, listed as Pitstop): synergistic effect

shRNA #4: shRNA knocking down mouse NCALD, one of five of SEQ ID NO: 15-19 (DNA CCGGCGCCAGATGGATACCAATAGACTGGAGTCTATTGGTATCCATCTGGCGTTTTTG)
Knockdown efficacy of Ncald (Ncald): sufficient knockdown efficacy

O=C(N/N=C/c1ccc(O)c(O)c1)c1cc2ccccc2cc1O [Dynasore]
Motor axon truncation, inhibitor alone or with low smn MO (zebrafish larvae; Dynasore alone or in combination with low smn MO): SMA-like axonal truncations

C[C@H](CCC(=O)O)C[C@H](C)C[C@H](C)C(=O)/C=C(\O)[C@H](C)C[C@H](C)C/C=C/[C@@H](C)[C@@H](O)[C@@H](C)[C@@H](O)C[C@@H]1CC[C@@](C)([C@H]2CC[C@@](C)([C@@H](C)O)O2)O1 [Ionomycin]
Endocytosis (FITC-dextran) (NSC34 cells): significant increase in endocytosis; also recorded: significantly increased endocytosis
